# Experimental data: patent USRE46907E1, “Suppression of cancer growth and metastasis using nordihydroguaiaretic acid derivatives with metabolic modulators” (THE JOHNS HOPKINS UNIVERSITY, priority 2008, dated 2018)
# Peptide text beside a SMILES is read from it. * marks the point of attachment. Cbz = O=C(OCc1ccccc1)*; CH2F = FC*
# Legend:
# 4T1 cells [1] = test: TUNEL apoptosis assay in 4T1 cells; format: cell-based, mouse
# Experimental: (§1) Cell Culture Either cell line 4T1 or 67NR was a gift from Dr. Miller (20). The cells were cultured in RPMI1640 medium supplemented with glucose (14 mM), pyruvate (1 mM), penicillin (100 units/ml), streptomycin (100 μg/ml), and fetal bovine serum (10%), buffered with 25 mM HEPES (pH 7.4). LNCaP human prostate cancer cell line was purchased from American Type Culture Collection (Manassas, Va.). The cell line was cultured in RPMI1640 medium supplemented with glucose (14 mM), pyruvate (1 mM), penicillin (100 units/ml), streptomycin (100 μg/ml), and fetal bovine serum (10%). Drugs were dissolved in dimethyl sulfoxide (DMSO) at a suitable concentration so that the final concentration of DMSO in the medium was less than 0.1%.
# (§2) Apoptosis assay: Simple TLTNEL assay was conducted by using TUNEL apoptosis detection kit (Upstate, Temecula, Calif.) with some modification. For the evaluation of the effect of PKCδ wild type and dominant negative vectors on TUNEL-positive cell death, we first transfected 4T1 or 67NR cells with these vectors by effectene (Qiagen, Valencia, Calif.). Wild type PKCδ vector is constructed from wild type PKCδ gene and pEGFP (Promega, Madison, Wis.). Dominant negative PKCδ vector is constructed from PKCδ gene mutated at a 376th amino acid residue (threonine) and pEGFP (Promega, Madison, Wis.) This threonine residue is located in ATP-binding domain of protein kinase Cδ, and therefore essential for any kinase reaction of the protein so that this mutant protein supposedly function as dominant negative. As a control we used pEGFP-N3 vector was used. These vectors contain green fluorescent protein (GFP) gene to be used as a transfection marker. The vectors are kind gifts from Dr. Yuspa (National Institutes of Health, Bethesda, Md.) (88). Twenty four hours after transfection, the cells were treated with M4N, Rottlerin, or Ly294002. Then 24 hrs after this treatment with these reagents, the cells were fixed with 10% formaldehyde in phosphate buffered saline without calcium and magnesium (PBS (−)). The cells were then incubated with rabbit anti-GFP antibody (MBL International, Woburn, Mass.) followed by treatment with anti-rabbit IgG antibody conjugated with fluorescein (Promega, Madison, Wis.). TUNEL staining was conducted by using TUNEL apoptosis detection kit (Upstate, Temecula, Calif.) except for using Streptavidin-Alexa Fluor 568 (Molecular Probes, Eugene, Oreg.) instead of Avidine-Rhodamine contained in the kit. Cell death was evaluated by dividing the number of TUNEL-positive cells among the cells positive with anti-GFP staining by the number of these GFP-positive cells.
# 67NR cells [2] = test: TUNEL apoptosis assay in 67NR cells; format: cell-based, mouse
# Experimental: as §1, §2
# [3] = tested on: PDK-1/Akt pathway-related proteins; test: Western blotting of PDK-1/Akt pathway-related proteins in 4T1 cells; format: cell-based, mouse; conditions: 4T1, 5 hrs after treatment, M4N 80 μM, Desferoxamine 75 or 150 μM
# Experimental: (§3) Western blotting: After cells had been grown in 25 mm^2 flasks and treated with reagents, the cells were washed with PBS (−) three times and suspended in RIP A buffer (150 mM NaCl, 50 mM Tris-HCl (pH 8,0), 0.1% SDS, 1% NP40, and 0.5% deoxycholate) supplemented with protease inhibitor cocktail (Calbiochem, San Diego, Calif.). The sample volumes were adjusted by the total protein amount. Protein assay was performed by Bio-Rad Protein Assay (Bio-Rad Laboratories, Inc. Hercules, Calif.). The samples were resolved by the standard SDS-polyacrylamide gel electrophoresis and transferred to nitrocellulose membrane (Amersham Biosciences, Bjorkgatan, Sweden). The membranes were blocked with skim milk, and incubated with primary antibodies at 4° C. overnight and then with secondary antibody conjugated with horse radish peroxidase at room temperature for 2 hrs. The signals were detected by western blot chemiluminescence reagent plus (New England Nuclear Life Science Products, Boston, Mass.).
# PKCδ [4] = test: Western blotting of total PKCδ and phosphor-PKCδ (Thr505) in 4T1 cells; format: cell-based, mouse; conditions: 4T1, 5 hrs; M4N 80 μM, Ro 5 μM, Ly 20 μM, Des 150 μM
# Experimental: as §3, with “The” for “Western blotting: After cells had been grown in 25 mm^2 flasks and treated with reagents, the cells were washed with PBS (−) three times and suspended in RIP A buffer (150 mM NaCl, 50 mM Tris-HCl (pH 8,0), 0.1% SDS, 1% NP40, and 0.5% deoxycholate) supplemented with protease inhibitor cocktail (Calbiochem, San Diego, Calif.). The”
# PKCδ [5] = test: Western blotting of total PKCδ and phosphor-PKCδ (Thr505) in 67NR cells; format: cell-based, mouse; conditions: 5 hrs, M4N 80 μM, Ro 5 μM, Ly 20 μM, Des 150 μM
# Experimental: as §3, with “The” for “Western blotting: After cells had been grown in 25 mm^2 flasks and treated with reagents, the cells were washed with PBS (−) three times and suspended in RIP A buffer (150 mM NaCl, 50 mM Tris-HCl (pH 8,0), 0.1% SDS, 1% NP40, and 0.5% deoxycholate) supplemented with protease inhibitor cocktail (Calbiochem, San Diego, Calif.). The”
# PKCδ [6] = test: Immunocytochemistry of PKCδ cellular localization in 4T1 cells; format: cell-based, mouse; conditions: 4T1, 5 hrs; for nuclear staining for phosphor-PKCδ (Thr505): without Desferoxamine co-treatment
# Experimental: (§4) Immunocytocheimstry: Cells were cultured on glass cover slips coated with poly-L-ornithine (Sigma, Saint Louis, Mo.). At 5 hrs after treatment with drugs, the cells were fixed with 10% formaldehyde in diluted in PBS (−) and washed with PBS (−) three times. After permeabilized by 0.2% Tryton X-100 and 1% goat serum diluted in PBS (−), the cells were blocked by PBS (−) containing 5% goat serum. The cells were then incubated with primary antibodies diluted in PBS (−) containing 0.5% bovine serum albumin (BSA), and with secondary antibodies, which is either anti-IgG conjugated with fluorescein (Vector Laboratories. Burlingame, Calif.), diluted in PBS (−) containing 0.5% BSA. The cells were observed through Zeiss fluorescent microscope (Carl Zeiss, Thornwood, N.Y.).
# HIF [7] = test: Western blotting of HIF in 4T1 cells; format: cell-based, mouse; conditions: 4T1, 5 hrs
# Experimental: as §3
# HIF [8] = test: Western blotting of HIF in 67NR cells; format: cell-based, mouse; conditions: 5 hrs
# Experimental: as §3
# [9] = tested on: LNCaP human prostate cancer cells; format: cell-based; conditions: for effect on TUNEL-positive cell death induced by M4N: 24 hrs
# Experimental: as §1, §2
# LNCaP tumors = test: Nude mice orthotropically implanted with LNCaP tumors, about eight times tumor volume, treatment from day 3; format: in vivo, mouse
# Experimental: Surgical orthotropic implantation of LNCaP tumors: LNCaP cells were grown as described above. Cells growing subconfluently were collected and resuspended into the tissue culture medium without fetal bovine serum and antibiotics. After counting the number of the cells, the cell concentration was adjusted using the same medium. After 20 μl of the medium containing a selected number of cancer cells (about 5×10^7 cells) had been mixed together with the same volume of Matrigel (BD science, Bedford, Mass.), the combined solution was injected into the skin of nude mice. […] The tumor tissue extracted from the skin was excised into pieces of about 2 mm diameter. After nude mice were anesthetized by 2,2,2-Tribromoethanol (Aldrich Chemical Co. Inc., Milwaukee, Wis.), a small incision was made at the abdomen of each mouse and a tumor tissue piece was implanted in the neighbor of the prostate of each mouse. Eight days after the operation, the injection of drugs was initiated, and the drugs were injected intravenously every day for the indicated periods
# As in the previous experiment (FIGS. 9 to 13), in this study we administered M4N, Ly, Ro, Etoposide, or Rapamycin to mice intravenously using CPE (25/30) solvent system (87). […] However, in this experiment we implanted about eight times the volume of tumors as in the previous experiments to detect the difference of efficacy of various combination treatments much faster. We started to treat the mice with combination treatments three days after the implantation instead of eight days, considering that the tumor volume is already large at the time of implantation in this experiment. This allows less time for possible metastasis to the transplanted tumors in this experiment than in the previous one.
# caspase-9 = test: Western blotting of caspase-9 cleavage in 67NR cells; format: cell-based, mouse; conditions: 5 hrs, Rottlerin 5 μM, M4N 80 μM
# Experimental: as §3
# 4T1 cells [10] = test: 4T1 tumor-bearing Balb/c mice (life-span, tumor size); format: in vivo, mouse; conditions: 5×10^4 cells, M4N 1 mg/shot, Rottlerin 100 μg/shot, three days a week from day 7
# Experimental: (§5) Animals: Female Balb/e mice were obtained from Charles River Laboratories (Wilmington, Mass.). M4N and Rottlerin were dissolved into a solvent, CPE (25/30) solvent system supplied by Erimos Pharmaceutical, L.L.C. (Raleigh, N.C.) and injected into mice either intravenously or intraperitoneally, T-cell deficient male nude mice (nu/nu) were obtained from Charles River Laboratories (Wilmington, Mass.). M4N and Ly294002 were dissolved into a solvent, CPE (25/30) solvent system supplied by Erimos Pharmaceutical, L.L.C. (Raleigh, N.C.) and injected into mice intravenously.
# (§6) Tumor inoculation: Either 4T1 or 67NR cells were grown as described above. Cells growing subconfluently were collected and resuspended into the tissue culture medium minus fetal bovine serum and antibiotics, After counting the number of the cells, the cell concentration was adjusted. Twenty μl of the solution containing a selected number of cancer cells (either 5×10^3 or 5×10^4 cells) was injected into each fat pad of a pair of mammary glands located close to lower limbs. Tumor size was measured by weighing tumors extracted from mouse cadavers.
# 67NR cells [11] = test: 67NR tumor-bearing Balb/c mice (life-span); format: in vivo, mouse; conditions: 5×10^4 cells, M4N 1 mg/shot, Rottlerin 100 μg/shot, three days a week from day 8
# Experimental: as §5, §6
# [12] = tested on: LNCaP human prostate cancer cells; test: MTT cell growth assay in LNCaP cells; format: cell-based; conditions: 24 hrs, M4N 80 μM, Ro 5 μM, Ly 20 μM
# Experimental: as §1
# MTT assay: Cells were incubated in PBS (−) supplemented with 5% fetal calf serum and 0.5 mg/ml MTT, 3-(4,5-Dimethylthiazol-2-yl)-2,5-diphenyltetrazolium bromide (Sigma, Saint Louis, Mo.) for 2 hrs. After the incubation, the cells were dissolved in dimethyl sulfoxide and the color of the solutions was measured by a spectrophotometer at wavelengths of 540 and 690 nm. The values correlated with viable cell numbers were obtained by subtracting the optical density at 690 nm from that, at 540 nm.
# PKCδ [13] = test: Immunocytochemistry of PKCδ cellular localization in LNCaP cells; format: cell-based, human; conditions: 5 hrs
# Experimental: as §4
# [14] = tested on: mitochondrial membrane potential; test: Mitochondrial membrane potential; format: cell-based
# [15] = 4T1, 24 hrs, with M4N 80 μM, Rottlerin 5 μM, Desferoxamine 150 μM
# [16] = 26 hrs, with M4N 80 μM, Rottlerin 5 μM, Desferoxamine 150 μM
compound,measurement,setting,value
"CC(=O)N(O)CCCCCNC(=O)CCC(=O)N(O)CCCCCNC(=O)CCC(=O)N(O)CCCCCN.CS(=O)(=O)O [Desferoxamine, Desferoxamine mesylate]",effect on cell death induced by M4N,4T1 cells [1]; [15],generally augmented cell death even more
same,effect on cell death induced by M4N,"4T1 cells [1]; 4T1, 48 hr, Desferoxamine 300 μM with M4N 80 μM",enhanced cell death induced by M4N
same,effect on cell death induced by M4N,67NR cells [2]; [16],generally augmented cell death even more
same,effect on cell death induced by M4N,"67NR cells [2]; 48 hr, Desferoxamine 300 μM with M4N 80 μM",enhanced cell death induced by M4N
same,"expression of phosphorylated PDK (Ser241), Akt (Ser473), PRAS40 (Thr246), Raf (Ser259), MEK (Ser217/221)",[3],not much effect
same,amount of phosphorylated PKCδ at Thr505,PKCδ [4],induced phosphorylation
same,amount of phosphorylated PKCδ at Thr505,PKCδ [5],induced phosphorylation
same,cellular distribution / nuclear staining of total PKCδ,PKCδ [6],did not modulate much nuclear staining
same,nuclear staining for phosphor-PKCδ (Thr505),PKCδ [6],only moderately increased nuclear staining
same,HIF stabilization,HIF [7],induced HIF stabilization
same,HIF stabilization,HIF [8],induced HIF stabilization
"O=C([O-])C(Cl)Cl.[Na+] [Dichloroacetate, Sodium Dichloroacetate]",effect on TUNEL-positive cell death induced by M4N,[9],synergistically augmented TUNEL-positive cell death induced by M4N
COc1cc([C@@H]2c3cc4c(cc3[C@@H](O[C@@H]3O[C@@H]5CO[C@@H](C)O[C@H]5[C@H](O)[C@H]3O)[C@H]3COC(=O)[C@H]23)OCO4)cc(OC)c1O [Etoposide],effect on TUNEL-positive cell death induced by M4N,[9],synergistically augmented TUNEL-positive cell death induced by M4N
same,mice with lung metastasis lesions,LNCaP tumors; combination groups at 80 days after tumor implantation,3 out of 5
same,time after implantation by which all mice died,"LNCaP tumors; mouse, in vivo",≤ 24 days
O=c1c(-c2ccc(O)cc2)coc2cc(O)cc(O)c12 [Genistein],effect on TUNEL-positive cell death induced by M4N with either Ro or Ly,"4T1 cells [1]; 4T1, Genistein 50 μM, 28 hrs",significantly suppressed the cell death
CC(=O)c1c(O)c(C)c(O)c(Cc2c(O)c3c(c(C(=O)/C=C/c4ccccc4)c2O)OC(C)(C)C=C3)c1O [Rottlerin],TUNEL-positive cell death,"4T1 cells [1]; 4T1, 24 hrs, M4N 80 μM, Rottlerin 5 μM, Ly294002 20 μM",Neither Ro nor Ly alone induced TUNEL-positive cell death
same,TUNEL-positive cell death with M4N in cells transfected with control vectors,"4T1 cells [1]; 4T1, 24 hrs, control vector",induced cell death synergistically with M4N
same,effect on cell death induced by M4N,4T1 cells [1]; [15],greatly enhanced cell death induced by M4N
same,TUNEL-positive cell death with M4N in cells transfected with control vectors,"67NR cells [2]; 24 hrs, control vector",induced cell death synergistically with M4N
same,TUNEL-positive cell death,"67NR cells [2]; 26 hrs, M4N 80 μM, Rottlerin 5 μM, Ly294002 20 μM",Neither Ro nor Ly alone induced TUNEL-positive cell death
same,effect on cell death induced by M4N,67NR cells [2]; [16],enhanced to some extent cell death induced by M4N
same,caspase-9 activation (cleavage),caspase-9,a small amount of caspase-9 is activated
same,amount of phosphorylated PKCδ at Thr505,PKCδ [4],induced phosphorylation
same,amount of phosphorylated PKCδ at Thr505,PKCδ [5],induced phosphorylation
same,cellular distribution / nuclear staining of total PKCδ,PKCδ [6],did not change much
same,nuclear staining for phosphor-PKCδ (Thr505),PKCδ [6],augmented staining
same,life-span of 4T1-bearing mice,4T1 cells [10],didn't extend the life-span
same,life-span of 67NR-bearing mice,67NR cells [11],didn't have much effect on the life-span
same,TUNEL-positive cell death,"[9]; 28 hrs, M4N 80 μM, Ro 5 μM, Ly 20 μM",has no effect
same,effect on cell death induced by M4N,"[9]; 28 hrs, with M4N 80 μM",synergistically augmented cell death induced by M4N
same,cell death with M4N over a broad range of concentrations,[9]; different concentrations of drugs,induced cell death synergistically
same,cytotoxicity alone,[9]; tissue culture,non-cytotoxic
same,cell growth (MTT),[12],suppressed cell growth to some extent
same,expression and nuclear level of total PKCδ,PKCδ [13],"Neither M4N, Ro, nor Ly treatment caused any remarkable change"
same,nuclear expression of phosphor-PKCδ (Thr507),PKCδ [13],augmented
same,depolarization of mitochondrial membrane potential,[14],depolarized mitochondrial membrane potential
"COC(=O)C[C@H](NC(=O)[C@H](C)NC(=O)[C@@H](NC(=O)OCc1ccccc1)C(C)C)C(=O)CF [zVAD, zVAD-fmk] (Cbz-Val-Ala-Asp(OMe)-CH2F)",effect of pan-caspase inhibitor on drug-induced TUNEL-positive cell death,"4T1 cells [1]; 4T1, zVAD 50 μM added 30 minutes before other drugs",didn't affect TUNEL-positive cell death
same,effect of pan-caspase inhibitor on drug-induced TUNEL-positive cell death,"67NR cells [2]; zVAD 50 μM, 42 hrs",didn't affect TUNEL-positive cell death
